Laboratory results: US20250206730A1 (AUTOTELIC BIO INC., priority 2022, published 2025)

Each molecule was assayed on TGF-β signaling (assay: Assay for evaluating cellular inhibition of TGF-β signaling, 4T1 (SBE-luc2P) luciferase reporter). Details: Mus musculus, 4T1, 4T1 (SBE-luc2P) transient pool, 0.2% FBS, 2 h pre-treatment, TGF-β1 2 ng/mL 24 h; read-out: IC50 4T1 Cell.
Type: cell-based
Description: [Example 2] Assay for Evaluating Cellular Inhibition of TGF-β Signaling
4T1 (SBE-luc2P) transient pool that have SBE-luc2P (hygro) expression plasmid or HEK293 (SBE reporter) stable cells (BPS bioscience) were seeded at 6×10^3 cells/well or 2.5×10^4 cells/well in 96-well plate, respectively. 4T1 (SBE-luc2P) transient pool were pre-treated with novel compound synthesized in Example 1 above in 0.2% FBS at approximately 60% confluence at 37° C. in 5% CO2. Also, HEK293 (SBE reporter) stable cells were pre-treated with each test compounds of formula in 0.5% FBS at approximately 80% confluence at 37° C. in 5% CO2. After 2 hours, cells were treated with TGF-β1 (2 ng/mL) for 24 h at 37° C. in 5% CO2. Cell lysates were prepared using Luciferase Assay (Promega) according to the manufacturer's instruction, and luminescence was measured by a plate reader, Biotek Synergy H1 (Vermont, USA).

| IC50 [µM] | Structure (SMILES) |
| --- | --- |
| < 0.1 | Cc1cccc(-c2nc(C)sc2Oc2ccnc(Nc3cccc(CCc4nn[nH]n4)c3)c2)n1 [A-307, N-(3-(2-(2H-tetrazol-5-yl)ethyl)phenyl)-4-((2-methyl-4-(6-methylpyridin-2-yl)thiazol-5-yl)oxy)pyridin-2-amine] |
| < 0.1 | COC(=O)c1ccc(Nc2cc(Oc3sc(C4CC4)nc3-c3ccccc3)ccn2)nc1 [A-130, Methyl 6-((4-((2-cyclopropyl-4-phenylthiazol-5-yl)oxy)pyridin-2-yl)amino)nicotinate] |
| < 0.1 | NC(=O)c1ccnc(Nc2cc(Oc3sc(N)nc3-c3ccccc3)ccn2)c1 [A-22, 2-((4-((2-Amino-4-phenylthiazol-5-yl)oxy)pyridin-2-yl)amino)isonicotinamide] |
| < 0.1 | CNS(=O)(=O)c1cccc(Nc2cc(Oc3sc(C)nc3-c3ccccc3)ccn2)c1 [A-73, N-Methyl-3-((4-((2-methyl-4-phenylthiazol-5-yl)oxy)pyridin-2-yl)amino)benzenesulfonamide] |
| > 0.1 | Nc1nc(-c2ccccc2)c(Oc2ccnc(Nc3cccc(S(=O)(=O)O)c3)c2)s1 [A-18, 3-((4-((2-Amino-4-phenylthiazol-5-yl)oxy)pyridin-2-yl)amino)benzenesulfonic acid] |
| > 0.1 | COC(=O)c1cccc(Nc2cc(Oc3sc(C4CC4)nc3-c3ccccc3)ccn2)n1 [A-131, Methyl 6-((4-((2-cyclopropyl-4-phenylthiazol-5-yl)oxy)pyridin-2-yl)amino)picolinate] |
| > 0.1 | Nc1nc(-c2ccccc2)c(Oc2ccnc(Nc3ccc(Cl)nc3)c2)s1 [A-35, 5-((2-((6-Chloropyridin-3-yl)amino)pyridin-4-yl)oxy)-4-phenylthiazol-2-amine] |
| > 0.1 | COc1ccc(Nc2cc(Oc3sc(C)nc3-c3ccccc3)ccn2)cc1 [A-103, N-(4-Methoxyphenyl)-4-((2-methyl-4-phenylthiazol-5-yl)oxy)pyridin-2-amine] |
| < 0.1 | CN(C)S(=O)(=O)c1cccc(Nc2cc(Oc3sc(N)nc3-c3ccccc3)ccn2)c1 [A-13, 3-((4-((2-Amino-4-phenylthiazol-5-yl)oxy)pyridin-2-yl)amino)-N,N-dimethylbenzenesulfonamide] |
| < 0.1 | Cc1nc(-c2ccccc2)c(Oc2ccnc(Nc3cn[nH]c3)c2)s1 [A-100, 4-((2-Methyl-4-phenylthiazol-5-yl)oxy)-N-(1H-pyrazol-4-yl)pyridin-2-amine] |
| < 0.1 | CS(=O)(=O)Cc1cccc(Nc2cc(Oc3sc(N)nc3-c3ccccc3)ccn2)c1 [A-19, 5-((2-((3-((Methylsulfonyl)methyl)phenyl)amino)pyridin-4-yl)oxy)-4-phenylthiazol-2-amine] |
| < 0.1 | Cc1nc(-c2ccccc2)c(Oc2ccnc(Nc3ccnc(Cl)c3)c2)s1 [A-89, N-(2-Chloropyridin-4-yl)-4-((2-methyl-4-phenylthiazol-5-yl)oxy)pyridin-2-amine] |
| < 0.1 | COc1cc(Nc2cc(Oc3sc(C)nc3-c3ccccc3)ccn2)ccn1 [A-88, N-(2-Methoxypyridin-4-yl)-4-((2-methyl-4-phenylthiazol-5-yl)oxy)pyridin-2-amine] |
| < 0.1 | CCc1nc(-c2ccccc2)c(Oc2ccnc(Nc3cccc(NS(=O)(=O)C(F)(F)F)c3)c2)s1 [A-311, N-(3-((4-((2-Ethyl-4-phenylthiazol-5-yl)oxy)pyridin-2-yl)amino)phenyl)-1,1,1-trifluoromethanesulfonamide] |
| > 0.1 | Cn1cc(Nc2cc(Oc3sc(N)nc3-c3ccccc3)ccn2)cn1 [A-37, 5-((2-((1-Methyl-1H-pyrazol-4-yl)amino)pyridin-4-yl)oxy)-4-phenylthiazol-2-amine] |
| > 0.1 | Cc1nc(-c2ccccc2)c(Oc2cc(Nc3cccc(S(N)(=O)=O)c3)ncn2)s1 [A-237, 3-((6-((2-Methyl-4-phenylthiazol-5-yl)oxy)pyrimidin-4-yl)amino)benzenesulfonamide] |
| > 0.1 | Cc1nc(-c2ccccc2)c(Oc2ccnc(NCc3ccc(F)cc3)c2)s1 [A-95, N-(4-Fluorobenzyl)-4-((2-methyl-4-phenylthiazol-5-yl)oxy)pyridin-2-amine] |

Second part, the molecule before the results:

| Structure (SMILES) | IC50 [µM] |
| --- | --- |
| Nc1nc(-c2ccccc2)c(Oc2cc(Nc3cccc(S(N)(=O)=O)c3)ncn2)s1 [A-239, 3-((6-((2-Amino-4-phenylthiazol-5-yl)oxy)pyrimidin-4-yl)amino)benzenesulfonamide] | < 0.1 |
| Nc1nc(-c2ccccc2)c(Oc2ccnc(Nc3cccc(S(=O)(=O)C(F)(F)F)c3)c2)s1 [A-17, 4-Phenyl-5-((2-((3-((trifluoromethyl)sulfonyl)phenyl)amino)pyridin-4-yl)oxy)thiazol-2-amine] | > 0.1 |
| COCCN1CCN(c2ccc(Nc3cc(Oc4sc(C)nc4-c4ccccc4)ccn3)cc2)CC1 [A-108, N-(4-(4-(2-Methoxyethyl)piperazin-1-yl)phenyl)-4-((2-methyl-4-phenylthiazol-5-yl)oxy)pyridin-2-amine] | < 0.1 |
| Nc1nc(-c2ccccc2)c(Oc2ccnc(NCc3ccncc3)c2)s1 [A-26, 4-Phenyl-5-((2-((pyridin-4-ylmethyl)amino)pyridin-4-yl)oxy)thiazol-2-amine] | > 0.1 |
| Cc1nc(-c2ccccc2)c(Oc2ccnc(NCc3ccncc3)c2)s1 [A-80, 4-((2-Methyl-4-phenylthiazol-5-yl)oxy)-N-(pyridin-4-ylmethyl)pyridin-2-amine] | > 0.1 |
| Nc1nc(-c2ccccc2)c(Oc2ccnc(Nc3ccnc(Cl)c3)c2)s1 [A-27, 5-((2-((2-Chloropyridin-4-yl)amino)pyridin-4-yl)oxy)-4-phenylthiazol-2-amine] | > 0.1 |
| COC(=O)C(C)(C)c1cccc(Nc2cc(Oc3sc(C)nc3-c3cccc(C)n3)ccn2)c1 [A-308, Methyl 2-methyl-2-(3-((4-((2-methyl-4-(6-methylpyridin-2-yl)thiazol-5-yl)oxy)pyridin-2-yl)amino)phenyl)propanoate] | < 0.1 |
| Cc1nc(-c2ccccc2)c(Oc2ccnc(Nc3cnn(S(C)(=O)=O)c3)c2)s1 [A-97, 4-((2-Methyl-4-phenylthiazol-5-yl)oxy)-N-(1-(methylsulfonyl)-1H-pyrazol-4-yl)pyridin-2-amine] | > 0.1 |
| Cc1nc(-c2ccccc2)c(Oc2ccnc(NCc3ccccc3)c2)s1 [A-94, N-Benzyl-4-((2-methyl-4-phenylthiazol-5-yl)oxy)pyridin-2-amine] | > 0.1 |
| NC(=O)c1cncc(Nc2cc(Oc3sc(N)nc3-c3ccccc3)ccn2)c1 [A-32, 5-((4-((2-Amino-4-phenylthiazol-5-yl)oxy)pyridin-2-yl)amino)nicotinamide] | > 0.1 |
| Cc1nc(-c2ccccc2)c(Oc2ccnc(Nc3cccc(S(=O)(=O)NC4CC4)c3)c2)s1 [A-76, N-Cyclopropyl-3-((4-((2-methyl-4-phenylthiazol-5-yl)oxy)pyridin-2-yl)amino)benzenesulfonamide] | < 0.1 |
| Nc1nc(-c2ccccc2)c(Oc2ccnc(Nc3ccncc3)c2)s1 [A-8, 4-Phenyl-5-((2-(pyridin-4-ylamino)pyridin-4-yl)oxy)thiazol-2-amine] | > 0.1 |
| Nc1nc(-c2ccccc2)c(Oc2ccnc(Nc3cccc(S(=O)(=O)NC4CC4)c3)c2)s1 [A-20, 3-((4-((2-Amino-4-phenylthiazol-5-yl)oxy)pyridin-2-yl)amino)-N-cyclopropylbenzenesulfonamide] | < 0.1 |
